This note sets out measurements from ChEMBL document CHEMBL1201862, “PubChem BioAssay data set” (2004).

Test systems include 786-0; A549; ACHN; CCRF-CEM; HCT-15; K562; LOX IMVI; M14; MDA-MB-435; MDA-N; MOLT-4; Malme-3M; NCI-H522; SK-MEL-28; SN12C; SNB-75; SR; SW-620; U-251.
Holding throughout (experiment): NCI tumour cell line growth inhibition, 48 h

Molecules are shown by their SMILES.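 All cell lines were grown in 96-well plates and treated with compound for 48 hours. The concentration for 50% growth inhibition is given as GI50.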 Activity calls are given as the source filed them. Rule as the data show it: active = GI50 up to about 1.1 µM and inactive = higher.

As for `CC(C)C(C/C=C1\CC(CO)(COC(=O)CC(C(C)C)C(C)C)OC1=O)C(C)C` (stereo not given), the GI50 with 786-0 was 7.03 µM (inactive); with A549, 3.72 µM (inactive); in the assay with ACHN, 10.3 µM (inactive); with CCRF-CEM, 4.06 µM (inactive); in the assay on HCT-15 it was 18.5 µM; in the assay with K562, 1.36 µM (inactive). The GI50 in the assay with LOX IMVI was 12.6 µM (inactive); with M14, 11.7 µM (inactive); in the assay with MDA-MB-435, 7.06 µM (inactive); with MDA-N it was 2.96 µM (inactive); with MOLT-4 it was 1.05 µM (active); in the assay on Malme-3M, 1.45 µM (inactive). Further, the GI50 in the assay with NCI-H522 is 13.8 µM (inactive); in the assay on SK-MEL-28, 14.9 µM (inactive); in the assay with SN12C, 9.1 µM (inactive); in the assay with SNB-75, 10.4 µM (inactive); in the assay on SR, 12.4 µM (inactive); in the assay with SW-620, 7.46 µM (inactive). Moreover, in the assay with U-251, the GI50 is 13.8 µM (inactive).
On to `CC(=O)O.CN1CCN(CN2C(=O)C3C4C=CC(C3C2=O)C2C3C(=O)N(CN5CCN(C)CC5)C(=O)C3C42)CC1` (stereo not given), for which the GI50 with 786-0 is 19.9 µM (inactive); in the assay with A549, 22 µM (inactive); in the assay on ACHN, 27.6 µM (inactive); with CCRF-CEM it was 18.5 µM (inactive); in the assay with HCT-15 it was 18.9 µM; in the assay on K562, 22.2 µM (inactive). Further, the GI50 with LOX IMVI was 18.2 µM (inactive); in the assay on M14, 18.9 µM (inactive); with MDA-MB-435, 17.1 µM (inactive); in the assay with MDA-N, 17.8 µM (inactive); with MOLT-4 it was 20.2 µM (inactive); in the assay on Malme-3M, 18.3 µM (inactive). Further, the GI50 was 18.6 µM (inactive) in the assay with NCI-H522; 28 µM (inactive) in the assay on SK-MEL-28; 21.4 µM (inactive) with SN12C; 23.3 µM (inactive) in the assay on SNB-75; 13.4 µM (inactive) in the assay with SR; 22.2 µM (inactive) in the assay on SW-620. Further, the GI50 in the assay on U-251 is 19 µM (inactive).
In the case of `C/C=C(/COC(C)=O)C(=O)OC1C=C(C=O)C(C)(C)C=C1C` (stereo not given), the GI50 is > 100 µM (inactive) in the assay with 786-0; > 100 µM (inactive) in the assay with A549; > 100 µM (inactive) in the assay with ACHN; 37.7 µM (inactive) in the assay on CCRF-CEM; greater than 100 µM with HCT-15; 43.5 µM (inactive) with K562. Further, the GI50 is > 100 µM (inactive) in the assay with LOX IMVI; > 100 µM (inactive) in the assay on M14; > 100 µM (inactive) with MDA-MB-435; > 100 µM (inactive) in the assay with MDA-N; > 10 µM (inactive) in the assay with MOLT-4; > 100 µM (inactive) with Malme-3M. Moreover, the GI50 is > 100 µM (inactive) with NCI-H522; > 100 µM (inactive) in the assay on SK-MEL-28; > 100 µM (inactive) in the assay with SN12C; 43.6 µM (inactive) with SNB-75; 27.5 µM (inactive) in the assay on SR; > 100 µM (inactive) with SW-620. For the same molecule, in the assay on U-251, the GI50 was > 100 µM (inactive).
In the case of `COc1ccc2nc3ccc(OC)cc3c(SCCO)c2c1`, the GI50 with 786-0 was 14.4 µM (inactive); in the assay with A549, > 78.7 µM (inactive); in the assay on ACHN, 23.7 µM (inactive); in the assay with CCRF-CEM it was 3.61 µM (inactive); in the assay on HCT-15, 27.4 µM; in the assay on K562, 9.91 µM (inactive). Moreover, the GI50 with LOX IMVI is 8.43 µM (inactive); in the assay on M14 it was 77.3 µM (inactive); with MDA-MB-435, 21.5 µM (inactive); in the assay on MDA-N it was 9.62 µM (inactive); in the assay with MOLT-4, 3.03 µM (inactive); in the assay with Malme-3M, 15.6 µM (inactive). In addition, the GI50 was 4.56 µM (inactive) in the assay on NCI-H522; 55.8 µM (inactive) with SK-MEL-28; 26.4 µM (inactive) in the assay on SN12C; 28.6 µM (inactive) in the assay with SNB-75; 19 µM (inactive) with SR; 28.4 µM (inactive) in the assay on SW-620. Also, the GI50 in the assay with U-251 was 65 µM (inactive).
As for `COC(=O)c1ccccc1NC(=O)/C(=N\NC(C)(C)C)C(C#N)c1nc(-c2ccc([N+](=O)[O-])cc2)cs1` (stereo not given), the GI50 in the assay with 786-0 was > 100 µM (inactive); in the assay on A549, > 100 µM (inactive); in the assay on ACHN, > 100 µM (inactive); in the assay with CCRF-CEM it was > 100 µM (inactive); in the assay with HCT-15, greater than 100 µM; in the assay on K562, > 100 µM (inactive). The GI50 with LOX IMVI, in the assay with M14, with MDA-MB-435, in the assay on MDA-N, in the assay with MOLT-4 and in the assay on Malme-3M was > 100 µM (inactive) each time. The GI50 with NCI-H522 was > 10 µM (inactive); with SK-MEL-28, > 100 µM (inactive); in the assay on SN12C it was > 100 µM (inactive); with SNB-75, > 100 µM (inactive); in the assay on SR, > 100 µM (inactive); in the assay on SW-620 it was > 100 µM (inactive). The GI50 in the assay with U-251 was > 100 µM (inactive).
With `CN(CCn1cnc2c1c(=O)n(C)c(=O)n2C)C1CCCCC1`, the GI50 in the assay with 786-0 was > 100 µM (inactive); in the assay on A549 it was > 100 µM (inactive); in the assay on ACHN, > 100 µM (inactive); with CCRF-CEM, > 100 µM (inactive); in the assay with HCT-15, greater than 100 µM; with K562, > 100 µM (inactive). Moreover, the GI50 with LOX IMVI, in the assay on M14, with MDA-MB-435, with MDA-N, in the assay on MOLT-4 and in the assay with Malme-3M was > 100 µM (inactive) throughout. Moreover, the GI50 with NCI-H522, with SK-MEL-28, in the assay with SN12C, with SNB-75, in the assay on SR and with SW-620 was > 100 µM (inactive) each time. Moreover, the GI50 with U-251 is > 100 µM (inactive).
With `CC(C)C1=C(O)C(=O)C2=C(C1=O)C(O)CC1C(C)(C)CCCC21C` (stereo not given), the GI50 in the assay on 786-0 is 9.2 µM (inactive); in the assay on A549, 4.56 µM (inactive); in the assay on ACHN, 3.85 µM (inactive); in the assay on CCRF-CEM it was 6.71 µM (inactive); with HCT-15, 3.71 µM; with K562, 6.56 µM (inactive). Also, the GI50 in the assay on LOX IMVI was 25.1 µM (inactive); in the assay with M14, 3.92 µM (inactive); with MDA-MB-435 it was 3.4 µM (inactive); in the assay on MDA-N, 2 µM (inactive); with MOLT-4, 25.8 µM (inactive); in the assay on Malme-3M, 3.87 µM (inactive). The GI50 was 21.6 µM (inactive) in the assay with NCI-H522; 13.3 µM (inactive) in the assay on SK-MEL-28; 7.26 µM (inactive) in the assay on SN12C; 30.2 µM (inactive) in the assay with SNB-75; 4 µM (inactive) in the assay with SR; 3.52 µM (inactive) in the assay with SW-620. For the same molecule, the GI50 in the assay with U-251 is 4.8 µM (inactive).
For the molecule `CCC(C)C1=C(OC(C)=O)[N+]2([O-])Oc3ccc(-c4c(OC(C)=O)c(OC(C)=O)c(-c5ccc(OC(C)=O)cc5)c(OC(C)=O)c4OC(C)=O)cc3OC2(C(C)CC)C(=O)N1OC(C)=O` (stereo not given), the GI50 in the assay on 786-0 is 10.5 µM (inactive); in the assay on A549 it was 18 µM (inactive); in the assay on ACHN it was 19.6 µM (inactive); with CCRF-CEM, 9.57 µM (inactive); in the assay on HCT-15, 22.5 µM; in the assay with K562, 12.2 µM (inactive). Further, the GI50 in the assay with LOX IMVI is 17.2 µM (inactive); in the assay with M14, 20.1 µM (inactive); in the assay with MDA-MB-435 it was 17.5 µM (inactive); in the assay on MDA-N it was 12.3 µM (inactive); in the assay with MOLT-4 it was 11.1 µM (inactive); in the assay on Malme-3M, 18.7 µM (inactive). Further, the GI50 with NCI-H522 was 8.53 µM (inactive); with SK-MEL-28, 19.5 µM (inactive); with SN12C it was 34.3 µM (inactive); in the assay on SNB-75, 14.8 µM (inactive); in the assay on SR it was 13.7 µM (inactive); with SW-620, 20.5 µM (inactive). In addition, in the assay on U-251, the GI50 is 23.8 µM (inactive).
Take `CN(C)c1ccc(/C=C(\NC(=O)c2ccccc2)C(=O)Nc2ccccc2C(=O)NN2C(=O)CSC2c2ccc(N(C)C)cc2)cc1` (stereo not given): the GI50 is 80.2 µM (inactive) in the assay on 786-0; > 100 µM (inactive) with A549; > 100 µM (inactive) in the assay on ACHN; > 100 µM (inactive) with CCRF-CEM; 92.7 µM with HCT-15; 33.3 µM (inactive) in the assay with K562. The GI50 in the assay on LOX IMVI is > 100 µM (inactive); in the assay on M14, > 100 µM (inactive); in the assay on MDA-MB-435, 66.5 µM (inactive); with MDA-N it was > 100 µM (inactive); in the assay on MOLT-4 it was > 100 µM (inactive); in the assay with Malme-3M, > 100 µM (inactive). Besides, the GI50 in the assay with NCI-H522 is 40.6 µM (inactive); in the assay with SK-MEL-28 it was > 100 µM (inactive); in the assay on SN12C, > 100 µM (inactive); in the assay on SNB-75, > 100 µM (inactive); in the assay with SR it was > 100 µM (inactive); with SW-620 it was > 100 µM (inactive). Moreover, the GI50 with U-251 was > 100 µM (inactive).
As to `O=C(OCC1OC(n2nc(Cn3nnc(-c4cccnc4)n3)n(-c3cccc4ccccc34)c2=S)C(OC(=O)c2ccccc2)C1OC(=O)c1ccccc1)c1ccccc1` (stereo not given), the GI50 with 786-0 was > 100 µM (inactive); with A549, > 100 µM (inactive); in the assay on ACHN it was > 100 µM (inactive); with CCRF-CEM it was > 100 µM (inactive); in the assay on HCT-15 it was greater than 100 µM; with K562, > 100 µM (inactive). Also, the GI50 in the assay on LOX IMVI was > 100 µM (inactive); with M14, 35.3 µM (inactive); with MDA-MB-435, > 100 µM (inactive); with MDA-N, > 100 µM (inactive); in the assay on MOLT-4, > 100 µM (inactive); in the assay on Malme-3M it was > 100 µM (inactive). For the same molecule, the GI50 is > 100 µM (inactive) in the assay on NCI-H522; > 100 µM (inactive) in the assay on SK-MEL-28; > 100 µM (inactive) in the assay on SN12C; 2.55 µM (inactive) in the assay with SNB-75; > 100 µM (inactive) in the assay with SR; > 100 µM (inactive) in the assay with SW-620. Also, the GI50 in the assay on U-251 was > 100 µM (inactive).
